These results are taken from BindingDB's records for patent US12509454 (Ideaya Biosciences, 2025).

Some results are limits rather than exact numbers.

This test deals with T1, DNA polymerase theta [1-899] (UniProt O75417).
T1 construct: 1-899
T1 sequence (O75417 1-899): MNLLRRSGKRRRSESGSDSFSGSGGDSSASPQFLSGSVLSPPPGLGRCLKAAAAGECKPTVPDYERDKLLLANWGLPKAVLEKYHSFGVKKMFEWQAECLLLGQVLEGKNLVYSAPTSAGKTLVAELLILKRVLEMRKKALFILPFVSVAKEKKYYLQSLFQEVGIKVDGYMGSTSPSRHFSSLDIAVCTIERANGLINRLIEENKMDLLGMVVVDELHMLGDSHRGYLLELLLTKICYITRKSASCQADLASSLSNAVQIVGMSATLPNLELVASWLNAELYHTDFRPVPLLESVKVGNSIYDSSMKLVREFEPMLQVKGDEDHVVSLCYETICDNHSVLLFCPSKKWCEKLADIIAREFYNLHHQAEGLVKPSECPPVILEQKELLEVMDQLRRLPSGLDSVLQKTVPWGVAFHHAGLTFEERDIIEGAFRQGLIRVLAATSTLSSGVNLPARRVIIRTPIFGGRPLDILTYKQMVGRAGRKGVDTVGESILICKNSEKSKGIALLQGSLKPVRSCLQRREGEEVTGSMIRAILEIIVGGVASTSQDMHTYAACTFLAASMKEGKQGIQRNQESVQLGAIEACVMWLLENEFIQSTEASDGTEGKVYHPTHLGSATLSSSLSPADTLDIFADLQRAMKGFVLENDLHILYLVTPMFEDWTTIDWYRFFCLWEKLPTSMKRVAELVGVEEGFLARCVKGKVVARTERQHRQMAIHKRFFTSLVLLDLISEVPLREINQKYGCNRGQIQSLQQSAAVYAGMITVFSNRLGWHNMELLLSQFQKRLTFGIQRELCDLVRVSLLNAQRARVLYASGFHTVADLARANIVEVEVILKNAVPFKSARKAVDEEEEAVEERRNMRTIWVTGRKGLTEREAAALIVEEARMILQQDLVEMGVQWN
Nature of the test: ATPase activity of Pol theta (1-899) was determined using the assay. The protocol: Pol Theta ATPase activity was determined by measuring the rate of ATP turn over in a NADH oxidation-coupled enzymatic assay. 10-point dilution series of compounds were used in a 384 well format for the inhibition assays. Pol theta (1-899) (10 nM) in assay buffer (20 mM Tris HCl (pH 7.80), 80 mM KCl, 10 mM MgCl2, 1 mM DTT, 0.01% BSA, 0.01% Tween, 5% glycerol) was transferred to the test wells (20 μL), except the low control wells (20 μL of assay buffer was added to the low control wells). The plate was then incubated at room temperature for 15 min. An equal volume (20 μL) of 100 μM ATP, 300 nM dT50 (single-stranded DNA (ssDNA) containing 50 thymine bases), 300 μM NADH, 6 mM PEP, 10 U/mL lactate dehydrogenase and 20 U/mL pyruvate kinase in assay buffer was added to all the test wells. The plate was then centrifuged at 1000 rpm for 1 min. The reaction was monitored for 30 min by measuring absorbance (λ=340 nm) in a Tecan Spark multimode plate reader every minute. The high control (DMSO with enzyme) with low absorbance intensity represents no inhibition of ATPase reaction while the low control (DMSO with buffer) with high absorbance intensity represents full inhibition of ATPase activity. Slope of the reaction progress curves were used to calculate the rate of ATP hydrolysis.
The IC50 is the concentration at which inhibition is half-maximal. Regarding `O=C(Nc1nnc(OCc2ccc(Cl)cc2)s1)c1cccnc1N1CCC(O)CC1` [US12509454, Compound 20], the IC50 was greater than 1 µM.

`N#Cc1cc(-c2c(F)cccc2OC(F)F)c(C(=O)Nc2nnc(OCc3ccc(Cl)cn3)s2)cn1` [US12509454, Compound 193]: the half-inhibitory concentration (IC50) was less than 0.2 µM. As to `CC(C)(O)C#Cc1ccc(C(=O)Nc2nnc(OCc3ccc(Cl)cc3)s2)c(N2CCOCC2)n1` [US12509454, Compound 29], the IC50 is greater than 1 µM. For `O=C(Nc1nnc(OCc2ccc(Cl)cc2)s1)c1ccncc1N1CCO[C@@H]2C[C@@H]21` (mixture of isomers) [US12509454, Compound 178] the value was less than 0.2 µM.
